How the values were obtained:
[1] = biological target: ternary complex between BCL-XL and CRBN-DDB1 (Homo sapiens, UniProt Q07817+Q96SW2); assay: Compound-induced formation of ternary complex between BCL-XL and CRBN-DDB1 by AlphaLISA; format: biochemical; parameters: key: the number of + indicates the intensity of AlphaLISA peak signal; ++: the number of + indicates the intensity of AlphaLISA peak signal; +++: the number of + indicates the intensity of AlphaLISA peak signal; ++++: the number of + indicates the intensity of AlphaLISA peak signal; +++++: the number of + indicates the intensity of AlphaLISA peak signal; settings: peak signal; 60 nM Strep-BCL-XL and 60 nM His-CRBN/DDB1
Protocol: Experimental Example 4, Detection of Compound-Induced Formation of Ternary Complex Between BCL-XL and CRBN-DDB1 by AlphaLISA Method
Na2HPO4(Sigma), NaH2PO4(Sigma), sodium chloride (Sigma), Tween-20 (Sigma), AlphaLISA®Nikel Chelate Acceptor beads (PerkinElmer), Strep-Tactin® Alpha Donor beads (PerkinElmer), Assay plate (Corning), Strep-BCl-XL (HitGen), His-CRBN/DDB1 (HitGen).
DMSO was used to dissolve the dry powder of the test compound to obtain a 10.00 mM solution. The instrument ECHO was used to perform gradient dilution of the compound, which was then added to a 384-well reaction plate (Corning, Cat #3824), so that the final concentration of DMSO in the entire reaction system (10.0 μL) was less than 1%, and the same amount of DMSO was added and used as a control.
Strep-BCl-XL and His-CRBN/DDB1 proteins were dissolved in buffer (10 mM NaH2PO4, 40 mM Na2HPO4, 150 mM sodium chloride, 0.03% Tween20, pH=7.4) to obtain a protein mixture of 60 nM Strep-BCL-XL and 60 nM His-CRBN/DDB1, the protein mixture (5ul/well) was added to the 384-well plate in which the compound had been added, and incubated at room temperature for 30 minutes, then 5 μl of a detection mixture with 50 μg/ml AlphaLISA®Nikel Chelate Acceptor beads and 50 μg/ml Strep-Tactin® Alpha Donor beads was added, and incubated at room temperature for 2 hours; and then a microplate reader was used to detect AlphaLISA signal.
Fifth order polynomial or Sixth order polynomial in Polynomial of Graphpad 6.0 was used for data fitting.

MOLT-4 cells = assay: Inhibitory activity on MOLT4 cell proliferation by Cell Titer-Glo method; format: cell-based; settings: Homo sapiens, 72 hours incubation, read-out: IC50 concentration for inhibiting MOLT-4 cells
Protocol: Experimental Example 5, Evaluation Experiment of Inhibitory Activity of Compound on MOLT4 Cell Proliferation by Cell Titer-Glo Method
RPMI medium modified (Hyclone), FBS (Corning), Dimethyl Sulfoxide, P/S, CellTiter-Gbo Luminescent Cell Viability Assay (Promega), MOLT-4 cell (ATCC).
MOLT-4 cells were cultured in monolayer in vitro in an incubator containing 5% CO2 air at 37° C. The culture medium was RPMI 1640 with 10% FBS and 1% P/S. 15 μL of MOLT4 cells, containing 5×10^4 cells per ml, was inoculated to a 384-well plate (Corning, 3707), 750 cells/well, and incubated at 37° C. and 5% CO2 for 30 minutes. Then the compound that had been diluted in advance was added, with a total of 9 concentration points, and 2 parallel repetitions for each concentration point. The cell growing group without adding the compound was used as a negative control (maximum signal control), and the culture medium group was used as a blank control (minimum signal control). At the same time, it was ensured that the final DMSO content in each reaction well was 0.1%. The compound and the cells were incubated in a cell culture incubator at 37° C., 5% CO2 for 3 days (72 hours).
The 384-well plate was taken out from the cell culture incubator and allowed to stand at room temperature, equilibrated for 20 to 30 minutes, and then 25 μl of Cell Titer-Glo detection reagent was added to each reaction well, lysed on a shaker for 2 minutes, incubated for 10 minutes, and BMG PHERAStar (Luminescence) was used for reading.
The inhibition rate was calculated based on the luminescence signals: the average value of the negative control (maximum signal control) and the blank control (minimum signal control) was first calculated, then the inhibition rates of the compound at different concentrations for the cells were calculated as follows:
The IC50 of the compound to inhibit cell activity was calculated by fitting with GraphPad Prism 6 using log(inhibitor) vs. response−Variable slope mode. The fitting equation was: Y=Bottom+(Top−Bottom)/(1+10^((LogIC50−X)*HillSlope)), wherein Y represented the inhibition rate and X represented the known compound concentration after Log.

[2] = biological target: T1, BCL-XL protein in MOLT-4 cells (Homo sapiens, UniProt Q07817); assay: Degradation effect on BCL-XL protein in MOLT-4 cells by Western Blot; format: cell-based; settings: 24 hours incubation, corrected by β-actin, read-out: DC50 concentration for BCL-XL protein degradation
T1 construct: host or cells: MOLT-4
Protocol: Experimental Example 6. Experiment to Evaluate Degradation Effect of Compound on BCL-XL Protein in MOLT-4 Cells by Western Blot Method
SDS-PAGE gel (4-12%) (Genscript), PMSF 100 mM (Biyotime), Cocktail 100× (Biyotime), P/S, RPMI medium modified (Hyclone), FBS (Corning), 4× loading buffer (Thermo), Bcl-xL (54H6) Rabbit mAb (CST), Anti-rabbit IgG-HRP (CST), Anti-β-actin-HRP (Abcam), RIPA (Biyotime), Tween-20, MOLT-4 cell (ATCC), BCA Protein Assay Kit (TIANGEN), Immobilon Western Chemilunescent HRP Substrate (Millipore).
1) Incubation of compound and cells: 1 mL of 10^6 MOLT-4 cells (culture medium: 89% RPMI, 10% FBS, 1% P/S) was inoculated in a 6-well cell culture plate, the compound was subjected to gradient dilution with DMSO, then the compound diluted in DMSO in gradient was diluted again into the MOLT-4 medium, and 1 mL of the diluted compound was directly added to the 6-well plate with the cultured cells and incubated for 24 hours.
2) Protein extraction: After the compound and the cells were co-incubated for 24 hours, the cells were collected and placed in a 1.5 mL centrifuge tube, washed twice with ice-cold PBS, the supernatant was discarded, then 150 μL of RIPA lysis buffer was added and lysis was carried out on ice for 30 minutes; then the cell lysate was centrifuged in a low-temperature centrifuge at 15,000 rpm for 10 minutes, and the supernatant was collected; and BCA Protein Assay Kit was used to quantify the protein in the resulting cell lysate supernatant. 4× loading buffer was added to the cell lysate supernatant and incubated at 85° C. for 10 minutes to obtain a sample. The obtained sample was stored in −80° C. refrigerator for the use on the next day. 20 μg of the sample was taken to perform SDS-Page and transmembrane, 5% skim milk was used to block the membrane for 1 hour, and then Bcl-xL (54H6) rabbit mAb, Anti-rabbit IgG-HRP, Anti-β-actin-HRP were used for incubation. After incubation, Immobilon Western Chemiluminescent HRP Substrate was used for color development, and a gel analyzer was used for analysis.
Analysis was performed with a grayscale analysis software, the amount of BCL-XL protein was corrected by the amount of β-actin, and then Graphpad 6 was used to calculate DC50.

ternary complex between BCL-XL and CRBN-DDB1, sequence (Q07817 whole entry): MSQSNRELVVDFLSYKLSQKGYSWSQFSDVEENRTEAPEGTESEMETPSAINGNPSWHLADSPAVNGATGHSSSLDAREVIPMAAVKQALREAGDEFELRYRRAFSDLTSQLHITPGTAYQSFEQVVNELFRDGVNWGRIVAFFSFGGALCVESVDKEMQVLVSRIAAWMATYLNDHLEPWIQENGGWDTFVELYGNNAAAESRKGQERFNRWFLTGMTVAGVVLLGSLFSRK
ternary complex between BCL-XL and CRBN-DDB1, sequence (Q96SW2 whole entry): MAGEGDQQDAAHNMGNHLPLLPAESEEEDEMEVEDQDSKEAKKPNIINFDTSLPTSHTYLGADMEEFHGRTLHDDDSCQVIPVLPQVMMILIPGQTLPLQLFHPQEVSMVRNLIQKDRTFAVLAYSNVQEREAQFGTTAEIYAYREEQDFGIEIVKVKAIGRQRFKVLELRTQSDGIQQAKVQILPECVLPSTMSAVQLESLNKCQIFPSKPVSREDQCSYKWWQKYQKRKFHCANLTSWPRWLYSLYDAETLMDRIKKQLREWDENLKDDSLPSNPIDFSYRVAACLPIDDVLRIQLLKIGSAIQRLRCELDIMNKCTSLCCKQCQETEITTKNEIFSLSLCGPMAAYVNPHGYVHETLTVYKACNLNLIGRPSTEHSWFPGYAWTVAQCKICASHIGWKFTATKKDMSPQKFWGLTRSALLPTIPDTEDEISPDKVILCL
ternary complex between BCL-XL and CRBN-DDB1, sequence (Q16531 whole entry partner): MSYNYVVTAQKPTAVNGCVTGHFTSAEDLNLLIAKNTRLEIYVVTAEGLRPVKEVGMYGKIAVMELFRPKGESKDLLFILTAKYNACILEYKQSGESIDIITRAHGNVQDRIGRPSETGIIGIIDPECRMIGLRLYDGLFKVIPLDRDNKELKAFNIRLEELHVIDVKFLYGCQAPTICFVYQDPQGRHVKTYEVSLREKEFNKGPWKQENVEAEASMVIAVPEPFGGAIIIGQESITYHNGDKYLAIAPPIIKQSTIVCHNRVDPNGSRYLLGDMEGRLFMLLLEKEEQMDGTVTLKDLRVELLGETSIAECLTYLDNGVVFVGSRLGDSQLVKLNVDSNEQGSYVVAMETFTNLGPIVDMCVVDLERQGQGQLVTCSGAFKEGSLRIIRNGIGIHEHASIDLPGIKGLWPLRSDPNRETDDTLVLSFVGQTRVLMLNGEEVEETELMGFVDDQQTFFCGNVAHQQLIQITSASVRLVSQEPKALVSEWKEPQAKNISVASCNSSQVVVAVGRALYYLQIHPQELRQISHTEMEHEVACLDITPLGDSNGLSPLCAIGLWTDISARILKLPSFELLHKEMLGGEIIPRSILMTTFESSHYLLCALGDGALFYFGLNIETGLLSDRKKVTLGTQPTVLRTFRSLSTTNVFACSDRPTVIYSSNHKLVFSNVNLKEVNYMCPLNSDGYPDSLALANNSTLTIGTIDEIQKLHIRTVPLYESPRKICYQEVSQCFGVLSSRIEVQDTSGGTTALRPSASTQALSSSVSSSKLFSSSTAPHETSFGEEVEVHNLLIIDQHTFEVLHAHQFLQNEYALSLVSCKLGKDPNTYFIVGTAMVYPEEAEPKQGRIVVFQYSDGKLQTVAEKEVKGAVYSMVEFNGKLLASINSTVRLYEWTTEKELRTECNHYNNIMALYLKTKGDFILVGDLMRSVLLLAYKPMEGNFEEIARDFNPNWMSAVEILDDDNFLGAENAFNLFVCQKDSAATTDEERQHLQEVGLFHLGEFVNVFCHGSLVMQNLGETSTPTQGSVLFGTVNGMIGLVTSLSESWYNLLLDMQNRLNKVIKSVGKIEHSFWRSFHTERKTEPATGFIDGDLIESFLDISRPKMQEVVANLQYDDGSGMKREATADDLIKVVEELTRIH
T1 sequence (Q07817 whole entry): as the sequence (Q07817 whole entry) above

Row | SMILES | AlphaLISA signal (PROTAC ternary complex signal intensity) [1] | IC50 (MOLT-4 cells) [µM] | DC50 [2] [µM]
1 | C=Cc1cc(-c2ncc3c(n2)CN(C(=O)c2ccc(/C=C/c4ccc(C#CCN5CCN(CCCCCOc6cccc7c6C(=O)N(C6CCC(=O)NC6=O)C7=O)CC5)cc4)cc2)CC3)cnc1C=C (stereo not drawn) [Compound C3-2] | + | 100 to 200 | 
2 | C=Cc1cc(-c2nc3c(c(NC)n2)CCN(C(=O)c2ccc(COc4ccc(C#CCN5CCN(CCCCCOc6cccc7c6C(=O)N(C6CCC(=O)NC6=O)C7=O)CC5)cc4)cc2)C3)cnc1C=C (stereo not drawn) [Compound C3-16] | ++++ | 50 to 100 | 
3 | CNc1nc(-c2cnc3ccccc3c2)nc2c1CCN(C(=O)c1ccc(/C=C/c3ccc(C#CCN4CCN(CCCCCC(=O)N[C@H](C(=O)N5C[C@H](O)C[C@H]5C(=O)NCc5ccc(-c6scnc6C)cc5)C(C)(C)C)CC4)cc3)cc1)C2 [Compound G1-5] | ++ | > 200 | 
4 | CNc1nc(-c2cnc3ccccc3c2)nc2c1CCN(C(=O)c1ccc(/C=C/c3ccc(C#CCN4CCC(CN5CCN(c6cc7c(cc6F)C(=O)N(C6CCC(=O)NC6=O)C7=O)CC5)CC4)cc3)cc1)C2 (stereo not drawn) [Compound F1B-3] |  | 50 to 100 | 1 to 10
5 | C/C=c1/cc(-c2ncc3c(n2)CN(C(=O)c2ccc(/C=C/c4ccc(C#CCN5CCN(CCCCCOc6cccc7c6CN(C6CCC(=O)NC6=O)C7=O)CC5)cc4)cc2)CC3)cn/c1=C/C (stereo not drawn) [Compound C3-4] | + | 100 to 200 | 
6 | C=Cc1cc(-c2nc3c(c(NC)n2)CCN(C(=O)c2ccc(COc4ccc(C#CCN5CCN(CCCCCCOc6cccc7c6C(=O)N(C6CCC(=O)NC6=O)C7=O)CC5)cc4)cc2)C3)cnc1C=C (stereo not drawn) [Compound C3-17] | ++++ | 50 to 100 | 
7 | C=Cc1cc(-c2nc3c(c(NC)n2)CCN(C(=O)c2ccc(COc4ccc(C#CCN5CCN(CCCCCNc6cccc7c6C(=O)N(C6CCC(=O)NC6=O)C7=O)CC5)cc4)cc2)C3)cnc1C=C (stereo not drawn) [Compound C2-3] | +++++ | 100 to 200 | 
8 | O=C1CCC(N2Cc3c(OC4CC5(C4)CN(C4CCN(CC#Cc6ccc(/C=C/c7ccc(C(=O)N8CCc9cnc(-c%10cnc%11ccccc%11c%10)nc9C8)cc7)cc6)CC4)C5)cccc3C2=O)C(=O)N1 (stereo not drawn) [Compound F3B-2] | ++ | 50 to 100 | 
9 | CNc1nc(-c2cnc3ccccc3c2)nc2c1CCN(C(=O)c1ccc(/C=C/c3ccc(C#CCN4CCN(CC5CCN(c6ccc7c(c6)C(=O)N(C6CCC(=O)NC6=O)C7=O)CC5)CC4)cc3)cc1)C2 (stereo not drawn) [Compound F2-11] |  | 50 to 100 | 1 to 10
10 | CNc1nc(-c2cnc3ccccc3c2)nc2c1CCN(C(=O)c1ccc(/C=C/c3ccc(C#CCN4CCN(CCCC#Cc5cccc6c5CN(C5CCC(=O)NC5=O)C6=O)CC4)cc3)cc1)C2 (stereo not drawn) [Compound D2-6] | ++ | 100 to 200 | 
11 | O=C1CCC(N2Cc3c(C#CCCCN4CCN(CC#Cc5ccc(/C=C/c6ccc(C(=O)N7CCc8cnc(-c9cnc%10ccccc%10c9)nc8C7)cc6)cc5)CC4)cccc3C2=O)C(=O)N1 (stereo not drawn) [Compound D2-4] | + | 100 to 200 | 
12 | C/C=c1/cc(-c2nc3c(c(NC)n2)CCN(C(=O)c2ccc(/C=C/c4ccc(C#CCN5CCN(CCCCCOc6cccc7c6CN(C6CCC(=O)NC6=O)C7=O)CC5)cc4)cc2)C3)cn/c1=C/C (stereo not drawn) [Compound C3-5] | ++ | 100 to 200 | 
13 | CNc1nc(-c2cnc3ccccc3c2)nc2c1CCN(C(=O)c1ccc(/C=C/c3ccc(C#CCN4CCN(CC5CCN(c6ccc7c(c6)CN(C6CCC(=O)NC6=O)C7=O)CC5)CC4)cc3)cc1)C2 (stereo not drawn) [Compound F2-8] |  | 1 to 10 | < 1
14 | CNc1nc(-c2cnc3ccccc3c2)nc2c1CCN(C(=O)c1ccc(COc3ccc(C#CCN4CCN(C(=O)CCCn5cc(COCCOCCNc6cccc7c6C(=O)N(C6CCC(=O)NC6=O)C7=O)nn5)CC4)cc3)cc1)C2 (stereo not drawn) [A] | ++ | 50 to 100 | 
15 | CNc1nc(-c2cnc3ccccc3c2)nc2c1CCN(C(=O)c1ccc(/C=C/c3ccc(C#CCN4CCN(CCC#Cc5cccc(N6CCC(=O)NC6=O)c5)CC4)cc3)cc1)C2 [Compound H1-1] |  | < 1 | < 1
16 | C=Cc1cc(-c2nc3c(c(NC)n2)CCN(C(=O)c2ccc(/C=C/c4ccc(C#CCN5CCN(CCCCCOc6cccc7c6C(=O)N(C6CCC(=O)NC6=O)C7=O)CC5)cc4)cc2)C3)cnc1C=C (stereo not drawn) [Compound C3-6] | + | 50 to 100 | 
17 | CNc1nc(-c2cnc3ccccc3c2)nc2c1CCN(C(=O)c1ccc(/C=C/c3ccc(C#CCN4CCN(C(=O)CC(=O)N[C@H](C(=O)N5C[C@H](O)C[C@H]5C(=O)N[C@@H](C)c5ccc(-c6scnc6C)cc5)C(C)(C)C)CC4)cc3)cc1)C2 [Compound G2-1] | ++ | > 200 | 
18 | C=Cc1cc(-c2ncc3c(n2)CN(C(=O)c2ccc(/C=C/c4ccc(C#CCN5CCN(C6CCN(CC#Cc7cccc8c7CN(C7CCC(=O)NC7=O)C8=O)CC6)CC5)cc4)cc2)CC3)cnc1C=C (stereo not drawn) [Compound E1-2] | ++ | 50 to 100 | 

Reference: patent US20250136593A1, “DEGRADATION AGENT AND USE THEREOF” (HITGEN INC., priority 2021, published 2025)
